Measurements taken from ChEMBL document CHEMBL4308844, “Allosteric Modulation of Class A GPCRs: Targets, Agents, and Emerging Concepts” (J Med Chem, 2018).

Key:
[1] = biological target: T1, 5-hydroxytryptamine receptor 2C (Homo sapiens) (UniProt P28335); experiment: Positive allosteric modulation of 5-HT2C receptor (unknown origin) assessed as increase in 5-HT-induced displacement of [3H]mesulergine by measuring fold reduction in 5-HT Ki at 20 uM relative to control
T1 sequence (whole entry): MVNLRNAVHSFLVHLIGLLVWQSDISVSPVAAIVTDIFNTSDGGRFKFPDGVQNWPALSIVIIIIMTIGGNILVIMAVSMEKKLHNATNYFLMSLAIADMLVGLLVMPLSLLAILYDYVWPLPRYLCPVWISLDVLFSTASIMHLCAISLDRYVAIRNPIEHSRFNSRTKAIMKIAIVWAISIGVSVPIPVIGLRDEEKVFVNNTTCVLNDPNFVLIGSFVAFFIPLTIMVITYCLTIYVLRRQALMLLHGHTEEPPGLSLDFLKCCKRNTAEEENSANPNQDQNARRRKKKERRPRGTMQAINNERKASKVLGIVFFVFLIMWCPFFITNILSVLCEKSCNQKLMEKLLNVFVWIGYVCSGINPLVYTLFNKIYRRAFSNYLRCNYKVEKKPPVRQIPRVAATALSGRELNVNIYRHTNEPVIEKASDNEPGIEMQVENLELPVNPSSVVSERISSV

[2] = biological target: T1, 5-hydroxytryptamine receptor 2C (Homo sapiens); experiment: Agonist activity at 5-HT2C receptor (unknown origin) expressed in HEK293 cells assessed as IP3 release at 10 uM relative to 5-HT maximal response
[3] = biological target: T2, Muscarinic acetylcholine receptor M1 (Homo sapiens, UniProt P11229); experiment: Positive allosteric modulation of M1 AchR (unknown origin)
T2 sequence (P11229 whole entry): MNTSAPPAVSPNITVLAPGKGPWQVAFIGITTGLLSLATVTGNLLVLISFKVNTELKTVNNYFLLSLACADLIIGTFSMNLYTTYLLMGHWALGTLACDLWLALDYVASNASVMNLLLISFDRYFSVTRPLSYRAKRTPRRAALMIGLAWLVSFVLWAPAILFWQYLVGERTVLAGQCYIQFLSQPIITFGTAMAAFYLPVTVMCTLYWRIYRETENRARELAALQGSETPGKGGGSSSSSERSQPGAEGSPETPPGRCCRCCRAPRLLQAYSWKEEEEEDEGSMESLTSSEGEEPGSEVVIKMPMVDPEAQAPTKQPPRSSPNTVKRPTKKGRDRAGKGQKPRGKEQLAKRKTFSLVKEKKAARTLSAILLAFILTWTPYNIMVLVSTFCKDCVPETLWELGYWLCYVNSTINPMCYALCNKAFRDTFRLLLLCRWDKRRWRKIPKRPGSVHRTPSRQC

[4] = biological target: T3, Muscarinic acetylcholine receptor M4 (Rattus norvegicus, UniProt P08485); experiment: Positive allosteric modulation of rat M4 AchR
T3 sequence (P08485 whole entry): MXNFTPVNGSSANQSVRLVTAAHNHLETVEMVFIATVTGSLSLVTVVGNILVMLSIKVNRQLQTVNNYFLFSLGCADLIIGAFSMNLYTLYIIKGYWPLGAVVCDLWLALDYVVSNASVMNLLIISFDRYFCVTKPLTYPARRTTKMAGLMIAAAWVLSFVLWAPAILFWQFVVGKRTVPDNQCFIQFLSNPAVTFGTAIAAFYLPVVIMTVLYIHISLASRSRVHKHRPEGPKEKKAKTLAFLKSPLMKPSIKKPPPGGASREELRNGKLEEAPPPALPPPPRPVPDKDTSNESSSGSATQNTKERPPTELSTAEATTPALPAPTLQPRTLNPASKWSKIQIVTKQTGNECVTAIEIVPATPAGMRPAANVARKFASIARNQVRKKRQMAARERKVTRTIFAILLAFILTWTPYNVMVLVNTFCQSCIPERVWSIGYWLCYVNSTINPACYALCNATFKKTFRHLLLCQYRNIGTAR

[5] = biological target: T4, Muscarinic acetylcholine receptor M4 (Homo sapiens, UniProt P08173); experiment: Positive allosteric modulation of human M4 AchR
T4 sequence (P08173 whole entry): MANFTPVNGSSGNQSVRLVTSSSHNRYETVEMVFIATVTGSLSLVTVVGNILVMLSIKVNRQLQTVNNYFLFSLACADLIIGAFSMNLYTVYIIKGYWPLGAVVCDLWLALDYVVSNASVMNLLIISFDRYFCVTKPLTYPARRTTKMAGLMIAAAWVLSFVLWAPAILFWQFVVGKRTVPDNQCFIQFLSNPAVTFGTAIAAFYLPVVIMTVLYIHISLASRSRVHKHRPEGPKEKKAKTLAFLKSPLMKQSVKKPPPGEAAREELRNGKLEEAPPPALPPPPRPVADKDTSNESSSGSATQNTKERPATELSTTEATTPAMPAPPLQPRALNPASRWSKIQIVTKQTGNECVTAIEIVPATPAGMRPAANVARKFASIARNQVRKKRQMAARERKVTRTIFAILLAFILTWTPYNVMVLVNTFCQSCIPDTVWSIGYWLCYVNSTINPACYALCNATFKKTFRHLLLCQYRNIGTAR

[6] = biological target: T5, C-X-C chemokine receptor type 3 (Homo sapiens) (UniProt P49682); experiment: Inhibition of [3H]RAMX3 binding to CXCR3 (unknown origin) relative to control; conditions: concentration not given here
T5 sequence (whole entry): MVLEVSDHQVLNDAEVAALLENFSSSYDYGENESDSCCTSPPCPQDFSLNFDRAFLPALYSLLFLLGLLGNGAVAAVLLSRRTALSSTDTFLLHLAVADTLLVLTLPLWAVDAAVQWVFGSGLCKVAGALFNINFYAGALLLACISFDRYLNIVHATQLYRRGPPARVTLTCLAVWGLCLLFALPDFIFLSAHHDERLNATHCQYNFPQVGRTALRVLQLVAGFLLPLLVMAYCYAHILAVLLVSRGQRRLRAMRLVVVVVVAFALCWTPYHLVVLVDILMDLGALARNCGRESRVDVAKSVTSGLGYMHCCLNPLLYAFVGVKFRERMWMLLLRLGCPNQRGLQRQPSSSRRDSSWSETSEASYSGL

[7] = biological target: Cannabinoid receptor 1 (Homo sapiens) (UniProt P21554); experiment: Positive allosteric modulation of human CB1R assessed as potentiation of CP55940-induced calcium mobilization at […] by cell based assay relative to control; format: functional
[8] = biological target: T6, Muscarinic acetylcholine receptor M4 (Homo sapiens) (UniProt P08173); experiment: Positive allosteric modulation of human M4 AchR expressed in CHO cells assessed as increase in acteylcholine-induced calcium mobilization by FLIPR assay; format: functional, cell-based
T6 sequence (whole entry): T4 sequence (P08173 whole entry)

[9] = biological target: T7, Substance-K receptor (Homo sapiens) (UniProt P21452); experiment: Negative allosteric modulation of NK2 receptor (unknown origin) assessed as decrease in agonist-induced cAMP production at 10 uM by cell based FRET assay relative to control; format: functional
T7 sequence (whole entry): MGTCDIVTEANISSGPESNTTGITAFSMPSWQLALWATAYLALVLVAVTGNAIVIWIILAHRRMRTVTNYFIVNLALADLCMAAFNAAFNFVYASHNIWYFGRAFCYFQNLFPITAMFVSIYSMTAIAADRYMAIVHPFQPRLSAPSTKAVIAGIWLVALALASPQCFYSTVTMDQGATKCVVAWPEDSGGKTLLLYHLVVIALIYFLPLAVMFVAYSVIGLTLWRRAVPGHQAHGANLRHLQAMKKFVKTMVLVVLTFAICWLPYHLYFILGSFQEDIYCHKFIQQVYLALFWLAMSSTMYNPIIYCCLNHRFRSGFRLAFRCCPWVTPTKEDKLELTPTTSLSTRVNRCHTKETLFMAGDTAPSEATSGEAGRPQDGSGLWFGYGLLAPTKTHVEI

[10] = biological target: Cannabinoid receptor 1 (Mus musculus) (UniProt P47746); experiment: Positive allosteric modulation of CB1R in MF1 mouse brain membranes assessed as increase in anandamide-stimulated [35S]GTPgammaS binding after 60 mins relative to control; format: functional, cell membranes
[11] = biological target: Cannabinoid receptor 1 (Mus musculus) (UniProt P47746); experiment: Positive allosteric modulation of CB1R in MF1 mouse brain membranes assessed as increase in [3H]WIN55212-2 binding after 60 mins relative to control; format: cell membranes
[12] = biological target: Cannabinoid receptor 1 (Mus musculus) (UniProt P47746); experiment: Positive allosteric modulation of CB1R in MF1 mouse brain membranes assessed as increase in [3H]CP55940 binding after 60 mins relative to control; format: cell membranes
[13] = biological target: T8, Muscarinic acetylcholine receptor M5 (Homo sapiens) (UniProt P08912); experiment: Positive allosteric modulation of M5 AchR (unknown origin) assessed as increase in acetylcholine-induced response relative to control
T8 sequence (whole entry): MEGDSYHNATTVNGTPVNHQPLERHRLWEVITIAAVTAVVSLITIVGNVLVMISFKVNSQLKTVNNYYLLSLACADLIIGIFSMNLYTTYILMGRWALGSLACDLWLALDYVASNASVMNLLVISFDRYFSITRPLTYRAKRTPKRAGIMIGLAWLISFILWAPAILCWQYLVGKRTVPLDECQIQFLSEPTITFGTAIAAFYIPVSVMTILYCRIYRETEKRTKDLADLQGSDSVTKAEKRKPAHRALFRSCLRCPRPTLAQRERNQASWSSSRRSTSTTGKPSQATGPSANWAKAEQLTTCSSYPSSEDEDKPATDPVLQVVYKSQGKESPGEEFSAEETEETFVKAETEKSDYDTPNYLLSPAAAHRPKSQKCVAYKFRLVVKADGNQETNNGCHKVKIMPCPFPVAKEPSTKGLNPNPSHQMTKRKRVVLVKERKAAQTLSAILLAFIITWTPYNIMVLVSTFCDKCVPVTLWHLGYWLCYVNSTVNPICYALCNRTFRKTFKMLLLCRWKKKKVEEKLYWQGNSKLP

[14] = biological target: D(2) dopamine receptor (Homo sapiens) (UniProt P14416); experiment: Negative allosteric modulation of D2R (unknown origin) assessed as decrease in [3H]NPA binding at 1 uM relative to control
[15] = biological target: D(2) dopamine receptor (Homo sapiens) (UniProt P14416); experiment: Negative allosteric modulation of D2R (unknown origin) assessed as decrease in [3H]NPA binding at 10 uM relative to control
[16] = biological target: T9, C-X-C chemokine receptor type 1 (Homo sapiens, UniProt P25024); experiment: Inhibition of CXCR1 (unknown origin)
T9 sequence (P25024 whole entry): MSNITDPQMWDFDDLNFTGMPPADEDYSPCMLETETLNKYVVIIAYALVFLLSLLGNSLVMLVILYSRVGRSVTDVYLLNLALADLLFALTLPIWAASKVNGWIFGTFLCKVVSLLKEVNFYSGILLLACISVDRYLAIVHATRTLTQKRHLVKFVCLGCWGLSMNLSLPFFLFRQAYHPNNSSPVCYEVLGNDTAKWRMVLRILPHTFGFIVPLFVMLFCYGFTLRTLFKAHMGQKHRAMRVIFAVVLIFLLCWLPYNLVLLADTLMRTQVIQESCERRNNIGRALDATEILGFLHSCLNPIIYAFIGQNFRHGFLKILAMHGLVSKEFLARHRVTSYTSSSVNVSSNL

[17] = biological target: T10, C-X-C chemokine receptor type 2 (Homo sapiens, UniProt P25025); experiment: Inhibition of CXCR2 (unknown origin)
T10 sequence (P25025 whole entry): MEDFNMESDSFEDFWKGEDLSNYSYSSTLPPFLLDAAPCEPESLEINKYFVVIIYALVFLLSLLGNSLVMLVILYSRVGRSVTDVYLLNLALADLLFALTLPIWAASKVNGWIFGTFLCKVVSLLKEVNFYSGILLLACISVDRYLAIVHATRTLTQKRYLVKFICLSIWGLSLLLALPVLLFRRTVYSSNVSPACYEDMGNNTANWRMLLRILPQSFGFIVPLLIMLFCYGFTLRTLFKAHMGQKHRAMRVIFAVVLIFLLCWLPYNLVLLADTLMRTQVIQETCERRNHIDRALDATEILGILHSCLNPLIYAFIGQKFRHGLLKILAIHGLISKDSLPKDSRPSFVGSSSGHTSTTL

Sequence of D(2) dopamine receptor (Homo sapiens) (P14416 whole entry): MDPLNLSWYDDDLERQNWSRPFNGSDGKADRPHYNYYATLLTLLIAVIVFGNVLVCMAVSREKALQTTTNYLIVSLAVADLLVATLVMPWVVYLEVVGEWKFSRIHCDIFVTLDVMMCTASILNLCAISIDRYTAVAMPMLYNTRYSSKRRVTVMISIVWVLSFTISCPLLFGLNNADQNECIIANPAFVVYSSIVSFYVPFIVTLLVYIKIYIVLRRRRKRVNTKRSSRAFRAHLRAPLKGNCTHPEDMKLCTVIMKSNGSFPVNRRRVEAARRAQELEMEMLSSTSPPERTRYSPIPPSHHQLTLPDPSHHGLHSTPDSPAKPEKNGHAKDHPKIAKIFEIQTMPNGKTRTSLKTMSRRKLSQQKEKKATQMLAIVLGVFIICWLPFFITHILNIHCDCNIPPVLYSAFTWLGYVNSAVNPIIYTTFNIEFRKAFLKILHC
Sequence of Cannabinoid receptor 1 (Mus musculus) (P47746 whole entry): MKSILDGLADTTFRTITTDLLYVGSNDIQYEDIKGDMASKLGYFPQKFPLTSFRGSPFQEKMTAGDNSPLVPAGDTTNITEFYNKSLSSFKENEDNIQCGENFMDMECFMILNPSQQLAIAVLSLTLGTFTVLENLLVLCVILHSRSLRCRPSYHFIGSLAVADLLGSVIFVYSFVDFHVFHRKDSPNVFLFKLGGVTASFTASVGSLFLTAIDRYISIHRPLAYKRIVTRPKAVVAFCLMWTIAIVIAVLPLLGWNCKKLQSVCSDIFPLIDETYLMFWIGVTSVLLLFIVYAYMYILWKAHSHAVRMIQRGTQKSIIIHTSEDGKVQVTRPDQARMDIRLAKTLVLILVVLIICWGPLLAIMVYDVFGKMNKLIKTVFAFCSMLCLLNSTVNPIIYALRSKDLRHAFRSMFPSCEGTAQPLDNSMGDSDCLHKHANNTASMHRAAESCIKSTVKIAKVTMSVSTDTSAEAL
Sequence of Cannabinoid receptor 1 (Homo sapiens) (P21554 whole entry): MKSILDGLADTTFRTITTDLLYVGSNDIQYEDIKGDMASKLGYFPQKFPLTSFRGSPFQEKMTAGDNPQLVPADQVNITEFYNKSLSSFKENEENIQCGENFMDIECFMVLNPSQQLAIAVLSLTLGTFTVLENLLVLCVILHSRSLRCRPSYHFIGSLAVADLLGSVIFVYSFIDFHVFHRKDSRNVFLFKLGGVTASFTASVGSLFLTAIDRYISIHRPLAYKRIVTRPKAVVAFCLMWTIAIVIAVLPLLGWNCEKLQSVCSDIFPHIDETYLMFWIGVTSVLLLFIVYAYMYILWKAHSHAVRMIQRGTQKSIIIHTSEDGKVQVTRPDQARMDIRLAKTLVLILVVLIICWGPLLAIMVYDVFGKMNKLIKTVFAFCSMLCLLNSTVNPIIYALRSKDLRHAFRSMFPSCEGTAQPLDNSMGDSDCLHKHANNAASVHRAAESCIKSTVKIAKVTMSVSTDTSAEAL

## CCCCCCCCCCC[C@@H]1CCN[C@H](C(=O)N[C@@H]([C@H]2O[C@H](SC)[C@H](O)[C@@H](O)[C@H]2O)[C@H](C)Cl)C1
[1]
  fold change (FC): 25
[2]
  Emax: < 71%

## Cc1cc(NC(=O)CS(=O)(=O)c2cn(Cc3ccc(-c4cnn(C)c4)nc3)c3cc(F)cc(F)c23)no1
[3]
  EC50: 310 nM

## Cc1cc(OCc2ccncc2)nc2sc(C(=O)NCc3cccc(F)c3F)c(N)c12
[4]
  EC50: 2400 nM
[5]
  EC50: 95 nM

## COc1ccc(Cn2cc(C(=O)N[C@H]3CCCC[C@@H]3O)c3ncccc32)cc1
[3]
  EC50: 1800 nM

## CCOc1ccc(-n2c(C(C)N(CC3CCN(Cc4ccc(C5(C(F)(F)F)N=N5)cc4)CC3)C(=O)Cc3ccc(F)c(C(F)(F)F)c3)nc3ncccc3c2=O)cc1 (stereo not given)
[6]
  inhibition: 80%

## Cc1ccc([C@H]2CC3CCC([C@H]2c2cc(-c4ccc(Cl)cc4)no2)N3C)cc1 (stereo not given in full)
[7]
  Emax: 36%

## COc1nc2sc(C(=O)NC3CC3)c(N)c2c(C)c1Cl
[8]
  Kb: 200 nM

## N#CCN(Cc1ccccc1)Cc1ccc2ccccc2c1
[9]
  inhibition: 30%

## Cc1ccc2c(C(C[N+](=O)[O-])c3cccs3)c(-c3ccccc3)[nH]c2c1 (stereo not given)
[10]
  Activity: 40%
[11]
  Emax: 225%
[12]
  Emax: 207%

## CCN(Cc1ccccc1C(F)(F)F)C(=O)C1CCN(S(=O)(=O)c2ccc3[nH]ncc3c2)CC1
[13]
  fold change (FC): 9.3

## CC1(C)S[C@@H]2CC[C@]3(CCCN3C(=O)[C@@H]3CCCN3)C(=O)N2[C@@H]1C(N)=O
[14]
  fold change (FC): 2.7
[15]
  fold change (FC): 2.8

## C[C@@H](C(=O)NS(C)(=O)=O)c1ccc(OS(=O)(=O)C(F)(F)F)cc1
[16]
  IC50: 0.1 nM
[17]
  IC50: 0.1 nM

## CC1(C)S[C@@H]2CC[C@]3(CCCN3C(=O)[C@@H]3CCCN3)C(=O)N2[C@H]1C(N)=O
[14]
  fold change (FC): 2.7
[15]
  fold change (FC): 2.8
